In experiment [1] the target is Cyclin-dependent kinase 7 (Homo sapiens, UniProt P50613). The experiment can be described thus: Competitive binding affinity to CDK7 (unknown origin) at 10 uM in presence of ATP relative to control.
Experiment [2] deals with Receptor-type tyrosine-protein kinase FLT3 (Homo sapiens), P36888 [UNDEFINED MUTATION]. The experiment can be described thus: Competitive binding affinity to FLT3 ITD mutant (unknown origin) at 10 uM in presence of ATP relative to control.
For experiment [3], the target named is Insulin receptor-related protein (Homo sapiens) (UniProt P14616). In words: Competitive binding affinity to INSRR (unknown origin) at 10 uM in presence of ATP relative to control.
The target in experiment [4] is T1, Ankyrin repeat and protein kinase domain-containing protein 1 (Homo sapiens) (UniProt Q8NFD2).
T1 sequence (whole entry): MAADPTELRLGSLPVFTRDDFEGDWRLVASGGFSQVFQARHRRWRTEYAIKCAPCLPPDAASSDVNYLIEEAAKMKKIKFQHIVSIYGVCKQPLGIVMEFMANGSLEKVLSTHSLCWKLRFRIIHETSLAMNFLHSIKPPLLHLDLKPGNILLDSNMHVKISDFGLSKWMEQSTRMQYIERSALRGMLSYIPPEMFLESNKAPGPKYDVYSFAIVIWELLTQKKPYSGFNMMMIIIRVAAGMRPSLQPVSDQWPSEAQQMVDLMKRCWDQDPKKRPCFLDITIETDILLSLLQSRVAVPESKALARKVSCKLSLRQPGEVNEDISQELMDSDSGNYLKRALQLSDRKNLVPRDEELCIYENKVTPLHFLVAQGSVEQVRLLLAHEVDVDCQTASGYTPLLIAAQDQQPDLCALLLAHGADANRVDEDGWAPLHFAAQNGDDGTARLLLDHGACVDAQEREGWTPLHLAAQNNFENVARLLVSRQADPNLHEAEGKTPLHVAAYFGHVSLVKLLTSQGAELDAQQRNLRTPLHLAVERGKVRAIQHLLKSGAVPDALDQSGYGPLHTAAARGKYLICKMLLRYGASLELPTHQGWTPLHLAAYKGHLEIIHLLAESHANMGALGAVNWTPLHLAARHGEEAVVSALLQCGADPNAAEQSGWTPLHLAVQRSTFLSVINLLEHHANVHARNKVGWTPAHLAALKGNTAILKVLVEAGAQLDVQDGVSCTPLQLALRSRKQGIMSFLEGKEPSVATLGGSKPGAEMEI
In words: Competitive binding affinity to ANKK1 (unknown origin) at 10 uM in presence of ATP relative to control.

Experiment [5] has as its target T2, Testis-specific serine/threonine-protein kinase 1 (Homo sapiens) (UniProt Q9BXA7).
T2 sequence (whole entry): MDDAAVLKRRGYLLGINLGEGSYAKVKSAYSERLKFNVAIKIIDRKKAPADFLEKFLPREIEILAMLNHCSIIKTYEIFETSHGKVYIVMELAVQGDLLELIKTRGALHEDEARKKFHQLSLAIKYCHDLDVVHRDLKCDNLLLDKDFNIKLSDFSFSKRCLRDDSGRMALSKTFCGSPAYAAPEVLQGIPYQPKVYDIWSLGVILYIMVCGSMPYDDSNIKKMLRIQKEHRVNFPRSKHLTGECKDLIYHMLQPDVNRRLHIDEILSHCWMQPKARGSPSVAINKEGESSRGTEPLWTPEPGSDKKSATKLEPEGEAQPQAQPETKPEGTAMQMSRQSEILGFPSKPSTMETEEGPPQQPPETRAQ
The experiment can be described thus: Competitive binding affinity to TSSK1 (unknown origin) at 10 uM in presence of ATP relative to control.

In experiment [6] the target is T3, Serine/threonine-protein kinase D1 (Homo sapiens) (UniProt Q15139).
T3 sequence (whole entry): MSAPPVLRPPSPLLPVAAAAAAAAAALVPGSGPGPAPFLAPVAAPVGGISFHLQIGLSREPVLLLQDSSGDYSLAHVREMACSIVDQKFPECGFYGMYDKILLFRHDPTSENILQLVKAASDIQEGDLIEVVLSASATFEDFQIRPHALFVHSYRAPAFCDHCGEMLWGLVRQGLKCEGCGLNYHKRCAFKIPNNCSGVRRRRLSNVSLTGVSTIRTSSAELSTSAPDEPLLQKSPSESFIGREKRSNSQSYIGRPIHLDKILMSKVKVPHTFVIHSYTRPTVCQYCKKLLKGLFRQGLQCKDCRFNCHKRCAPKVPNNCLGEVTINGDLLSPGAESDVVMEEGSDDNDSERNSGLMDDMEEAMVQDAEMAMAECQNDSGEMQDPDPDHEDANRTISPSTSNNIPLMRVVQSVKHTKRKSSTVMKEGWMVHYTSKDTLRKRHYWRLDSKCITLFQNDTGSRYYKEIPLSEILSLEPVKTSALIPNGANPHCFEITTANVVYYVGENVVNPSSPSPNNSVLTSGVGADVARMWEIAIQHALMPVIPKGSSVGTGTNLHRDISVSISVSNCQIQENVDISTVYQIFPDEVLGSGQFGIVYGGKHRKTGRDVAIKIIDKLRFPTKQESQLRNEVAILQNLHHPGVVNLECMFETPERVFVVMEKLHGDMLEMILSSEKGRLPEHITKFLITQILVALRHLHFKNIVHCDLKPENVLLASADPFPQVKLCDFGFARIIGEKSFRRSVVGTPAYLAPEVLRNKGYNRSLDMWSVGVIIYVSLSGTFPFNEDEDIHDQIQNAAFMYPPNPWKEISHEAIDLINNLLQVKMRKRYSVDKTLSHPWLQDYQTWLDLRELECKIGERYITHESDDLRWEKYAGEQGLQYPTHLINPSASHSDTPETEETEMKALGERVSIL
The experiment can be described thus: Competitive binding affinity to PRKD1 (unknown origin) at 10 uM in presence of ATP relative to control.

Experiment [7] addresses Serine/threonine-protein kinase 25 (Homo sapiens) (UniProt O00506). In words: Competitive binding affinity to YSK1 (unknown origin) at 10 uM in presence of ATP relative to control.
Experiment [8] concerns the target SRSF protein kinase 1 (Homo sapiens) (UniProt Q96SB4). The experiment can be described thus: Competitive binding affinity to SRPK1 (unknown origin) at 10 uM in presence of ATP relative to control.

The values below come from ChEMBL document CHEMBL2424622, “Development of amino-pyrimidine inhibitors of c-Jun N-terminal kinase (JNK): kinase profiling guided optimization of a 1,2,3-benzotriazole lead” (Bioorg Med Chem Lett, 2013).

Usually inhibition stands for the change of the read-out against control, counted positive when it falls.

Sequence of Serine/threonine-protein kinase 25 (Homo sapiens) (O00506 whole entry, looked up): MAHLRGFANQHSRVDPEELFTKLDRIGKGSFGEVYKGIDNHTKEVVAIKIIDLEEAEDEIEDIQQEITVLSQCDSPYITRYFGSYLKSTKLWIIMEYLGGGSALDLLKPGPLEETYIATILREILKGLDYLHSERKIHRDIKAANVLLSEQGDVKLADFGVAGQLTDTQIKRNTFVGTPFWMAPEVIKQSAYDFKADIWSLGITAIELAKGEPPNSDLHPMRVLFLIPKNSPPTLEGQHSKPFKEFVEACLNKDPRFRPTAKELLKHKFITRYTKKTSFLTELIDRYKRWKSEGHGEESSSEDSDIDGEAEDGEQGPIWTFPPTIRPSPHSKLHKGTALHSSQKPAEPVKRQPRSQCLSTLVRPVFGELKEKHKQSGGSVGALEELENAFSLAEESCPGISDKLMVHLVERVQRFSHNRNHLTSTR
Sequence of Insulin receptor-related protein (Homo sapiens) (P14616 27-742 limits assumed): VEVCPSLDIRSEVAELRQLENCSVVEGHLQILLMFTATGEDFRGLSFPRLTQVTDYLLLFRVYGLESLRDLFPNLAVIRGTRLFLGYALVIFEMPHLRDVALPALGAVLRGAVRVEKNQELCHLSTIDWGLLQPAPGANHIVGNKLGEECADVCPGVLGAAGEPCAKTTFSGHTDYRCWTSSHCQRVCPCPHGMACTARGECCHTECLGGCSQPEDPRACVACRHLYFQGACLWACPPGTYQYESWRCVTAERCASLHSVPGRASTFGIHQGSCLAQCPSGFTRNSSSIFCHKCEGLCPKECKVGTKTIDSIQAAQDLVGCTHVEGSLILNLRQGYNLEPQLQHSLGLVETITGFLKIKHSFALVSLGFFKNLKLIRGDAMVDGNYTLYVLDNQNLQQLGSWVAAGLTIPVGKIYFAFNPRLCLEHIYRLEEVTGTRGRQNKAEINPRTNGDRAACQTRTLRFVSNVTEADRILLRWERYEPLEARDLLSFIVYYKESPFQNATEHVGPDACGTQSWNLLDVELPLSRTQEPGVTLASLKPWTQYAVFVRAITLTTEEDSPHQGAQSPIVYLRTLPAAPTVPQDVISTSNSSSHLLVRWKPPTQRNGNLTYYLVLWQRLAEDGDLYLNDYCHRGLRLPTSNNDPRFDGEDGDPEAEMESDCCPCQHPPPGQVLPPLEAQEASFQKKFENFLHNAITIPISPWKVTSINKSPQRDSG
Sequence of Insulin receptor-related protein (Homo sapiens) (P14616 747-1297 limits assumed): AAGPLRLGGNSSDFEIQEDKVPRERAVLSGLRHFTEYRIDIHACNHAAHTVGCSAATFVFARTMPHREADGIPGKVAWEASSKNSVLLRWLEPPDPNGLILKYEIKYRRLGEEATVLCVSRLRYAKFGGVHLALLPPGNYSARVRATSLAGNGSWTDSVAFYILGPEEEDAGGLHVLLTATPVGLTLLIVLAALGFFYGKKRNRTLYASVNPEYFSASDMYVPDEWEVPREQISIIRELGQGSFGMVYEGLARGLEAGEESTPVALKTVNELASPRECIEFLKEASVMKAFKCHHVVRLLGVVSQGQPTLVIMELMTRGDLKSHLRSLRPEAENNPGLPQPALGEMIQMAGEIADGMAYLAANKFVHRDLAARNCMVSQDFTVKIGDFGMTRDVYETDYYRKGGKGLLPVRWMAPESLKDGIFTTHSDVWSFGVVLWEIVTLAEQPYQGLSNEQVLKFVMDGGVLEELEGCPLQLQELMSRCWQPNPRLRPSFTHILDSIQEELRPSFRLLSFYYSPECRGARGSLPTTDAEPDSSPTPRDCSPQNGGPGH
Sequence of Receptor-type tyrosine-protein kinase FLT3 (Homo sapiens), P36888 [UNDEFINED MUTATION] (P36888 whole entry, looked up, stated change not applied): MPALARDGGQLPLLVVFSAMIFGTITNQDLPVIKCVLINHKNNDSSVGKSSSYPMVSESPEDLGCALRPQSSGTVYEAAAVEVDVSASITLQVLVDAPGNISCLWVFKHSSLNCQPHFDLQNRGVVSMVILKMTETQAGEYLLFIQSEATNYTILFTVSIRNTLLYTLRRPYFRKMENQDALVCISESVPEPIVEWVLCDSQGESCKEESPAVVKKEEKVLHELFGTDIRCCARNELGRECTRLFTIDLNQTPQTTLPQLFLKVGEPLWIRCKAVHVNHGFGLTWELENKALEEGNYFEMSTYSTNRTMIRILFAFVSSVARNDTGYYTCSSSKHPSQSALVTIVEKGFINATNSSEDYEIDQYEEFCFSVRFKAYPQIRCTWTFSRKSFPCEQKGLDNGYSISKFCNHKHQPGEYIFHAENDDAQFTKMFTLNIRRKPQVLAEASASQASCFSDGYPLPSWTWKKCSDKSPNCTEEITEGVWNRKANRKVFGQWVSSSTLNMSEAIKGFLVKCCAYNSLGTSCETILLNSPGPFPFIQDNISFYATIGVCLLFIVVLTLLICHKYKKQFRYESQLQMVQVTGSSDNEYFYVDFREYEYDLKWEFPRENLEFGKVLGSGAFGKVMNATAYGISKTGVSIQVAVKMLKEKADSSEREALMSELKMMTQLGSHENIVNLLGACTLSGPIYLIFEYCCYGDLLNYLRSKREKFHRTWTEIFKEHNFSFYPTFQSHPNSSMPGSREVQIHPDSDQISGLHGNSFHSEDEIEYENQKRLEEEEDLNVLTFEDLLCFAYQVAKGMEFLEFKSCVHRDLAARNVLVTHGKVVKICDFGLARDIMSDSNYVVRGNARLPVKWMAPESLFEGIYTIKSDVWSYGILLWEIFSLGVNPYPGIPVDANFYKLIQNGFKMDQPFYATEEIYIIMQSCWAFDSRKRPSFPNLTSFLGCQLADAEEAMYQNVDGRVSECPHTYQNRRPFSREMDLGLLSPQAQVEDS
Sequence of SRSF protein kinase 1 (Homo sapiens) (Q96SB4 whole entry): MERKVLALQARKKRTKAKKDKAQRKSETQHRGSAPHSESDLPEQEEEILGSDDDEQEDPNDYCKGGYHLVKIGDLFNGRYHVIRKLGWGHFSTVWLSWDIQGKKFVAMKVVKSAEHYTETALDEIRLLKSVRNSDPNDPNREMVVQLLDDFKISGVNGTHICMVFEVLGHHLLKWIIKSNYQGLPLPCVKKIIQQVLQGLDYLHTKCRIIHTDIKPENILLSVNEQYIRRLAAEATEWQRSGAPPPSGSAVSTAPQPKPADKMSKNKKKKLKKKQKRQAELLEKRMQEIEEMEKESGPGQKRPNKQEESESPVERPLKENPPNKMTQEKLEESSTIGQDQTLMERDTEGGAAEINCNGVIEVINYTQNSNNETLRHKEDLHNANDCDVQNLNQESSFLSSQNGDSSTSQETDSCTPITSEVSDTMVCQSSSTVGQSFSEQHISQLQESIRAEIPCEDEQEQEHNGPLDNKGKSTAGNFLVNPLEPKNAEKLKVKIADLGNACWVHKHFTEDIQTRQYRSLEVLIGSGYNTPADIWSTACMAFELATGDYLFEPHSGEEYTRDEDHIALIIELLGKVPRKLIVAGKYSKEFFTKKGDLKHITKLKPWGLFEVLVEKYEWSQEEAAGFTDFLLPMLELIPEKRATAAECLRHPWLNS
Sequence of Cyclin-dependent kinase 7 (P50613 whole entry): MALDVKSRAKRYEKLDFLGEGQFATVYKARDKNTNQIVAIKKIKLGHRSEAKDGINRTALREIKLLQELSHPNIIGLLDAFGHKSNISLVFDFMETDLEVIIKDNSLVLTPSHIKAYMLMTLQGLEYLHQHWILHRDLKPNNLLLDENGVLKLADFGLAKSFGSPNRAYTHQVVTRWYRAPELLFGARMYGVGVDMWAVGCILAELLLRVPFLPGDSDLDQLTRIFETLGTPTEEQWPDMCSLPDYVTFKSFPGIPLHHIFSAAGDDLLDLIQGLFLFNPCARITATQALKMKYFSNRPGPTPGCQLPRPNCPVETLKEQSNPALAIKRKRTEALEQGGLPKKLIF

As to `CS(=O)(=O)CCCOc1cccc2c1ccn2-c1ccnc(N[C@H]2CC[C@H](C(=O)N3CCC(O)CC3)CC2)n1`, the inhibition in experiment [1] was more than 85%.
Turning to `O[C@H]1CC[C@H](Nc2nccc(-n3ccc4ccccc43)n2)CC1`, the inhibition is less than 50% in experiment [2]; less than 50% in experiment [3]; less than 50% in experiment [4]; less than 50% in experiment [5]; 95% in experiment [6]; 83% in experiment [1]. For the same compound, the inhibition is 74% in experiment [7] and less than 50% in experiment [8].
Consider `O[C@H]1CC[C@H](Nc2nccc(-n3ncc4ccccc43)n2)CC1`, for which the inhibition in experiment [2] was 100%; in experiment [3], less than 50%; in experiment [4] it was less than 50%; in experiment [5], less than 50%; in experiment [6], 96%; in experiment [1] it was 81%. Moreover, the inhibition was 77% in experiment [7] and less than 50% in experiment [8].
Take `O[C@H]1CC[C@H](Nc2nccc(-c3n[nH]c4ccccc34)n2)CC1`: the inhibition was found to be 100% in experiment [2], 98% in experiment [3] and 100% in experiment [8].
Turning to `O[C@H]1CC[C@H](Nc2nccc(-n3nnc4ccccc43)n2)CC1`, the inhibition in experiment [2] is 98%; in experiment [3] it was less than 50%; in experiment [4], 69%; in experiment [5], less than 50%; in experiment [6], 98%; in experiment [1] it was 92%. Also, the inhibition in experiment [7] is 78%; in experiment [8], less than 50%.
